Patent publication EP4737449A1 (Changchun Genescience Pharmaceutical Co., Ltd., priority 2023, dated 2025)
pIC50: −log10 of the molar value. Read-outs that look alike come from different tables or passages of the source.

Legend:
p53-Y220C mutant protein = target: T1, p53-Y220C mutant protein (Homo sapiens, UniProt P04637, Y220C); assay: In vitro DNA binding activity assay (TR-FRET); format: biochemical; conditions: concentration required to increase the binding activity of protein to DNA by 50%
T1 construct: The recombinant Y220C p53 DBD protein with his-tag
How it was run: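 SC150, the compound concentration increasing p53-Y220C DNA binding by 50% relative to vehicle, came from background-corrected 665/615 nm TR-FRET ratios. His-tagged DBD and compound were preincubated 60 min at RT before biotin-DNA plus Eu-anti-His/streptavidin-d2 detection overnight in the dark.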

NUGC-3 cells = assay: NUGC-3 cell proliferation assay (CTG, 7 days); format: cell-based, human
Procedure: The cells were cultured in strict accordance with ATCC requirements.
Cell culture medium: 1640 culture medium, 10% serum, 1% penicillin + streptomycin.
Culture conditions: 37°C, 95% air, 5% carbon dioxide.
Compounds (20 mM) were subjected to gradient dilution in DMSO: 10 gradients, 3-fold dilution, duplicate wells.
Positive and negative controls (100% dimethyl sulfoxide) were prepared.
The compounds that were gradient diluted with DMSO and positive and negative controls (1st and 2nd step), each 75 nL, were transferred to 384-well cell culture plates by Echo550.
The cells were washed twice with PBS, digested with trypsin, and centrifuged for cell counting.
The experiment can only be carried out when the cell viability is above 90%.
The cells were plated into 384-well cell culture plates, with 200 (NUGC-3) cells and 30 µL of culture medium per well.
The 384-well microplate was placed in a cell culture incubator for 7 days.
30 µL of CTG detection reagent was added to the 384-well microplate.
The 384-well microplate was incubated for 30 min at 37°C, 5% carbon dioxide in the dark.
The reading was performed by a multi-functional microplate reader Envision.
% Inhibition is calculated as follows: % Inhibition = 100−(Signalcmpd−SignalAve_BL)/(SignalAve_VC−SignalAve_BL)*100 [formula] • Signalcmpd: Average signal of the compound in the cell plate • Signalave_vc: Average signal of the negative control in the cell plate • Signalave_BL: Average signal of the blank wells in the cell plate
IC50 was calculated by fitting % inhibition and compound concentration logarithmically to a nonlinear regression (dose response - variable slope) using Graphpad 8.0. Table 2 IC50 of selected compounds in NUGC-3 cell proliferation assay

[1] = NUGC-3 cell proliferation, 7 days, CTG, read-out: IC50
[2] = Homo sapiens, NUGC-3, 168 h, NUGC-3 cell proliferation, 7 days, CTG, read-out: IC50

Compound	SC150 (p53-Y220C mutant protein) [nM]	pIC50 (NUGC-3 cells; [1])	pIC50 (NUGC-3 cells; [2])	pIC50 (NUGC-3 cells; Homo sapiens, NUGC-3, 168 h)
CC(C1CC1)n1ncc(C(=O)NCC#Cc2nn3c(N[C@@H]4CCN(C)C[C@@H]4F)cccc3c2CC(F)(F)F)c1N (single isomer, unassigned) [Compound 291A]	3	6.78		
CC(C1CC1)n1ncc(C(=O)NCC#Cc2nn3c(N[C@@H]4CCN(C)C[C@@H]4F)cccc3c2CC(F)(F)F)c1N (single isomer, unassigned) [Compound 291B]	4	6.79		
CN(C)C1CC[C@@H](Nc2cccc3c(CC(F)(F)F)c(C#CCNC(=O)c4cnn(C(C)(C)C)c4N)nn23)[C@@H](F)C1 (single isomer, unassigned) [Compound 358-A]	2		6.91	
CN1CC[C@@H](Nc2cccc3c(CC(F)(F)F)c(C#CCNC(=O)c4ccccc4)nn23)[C@@H](F)C1 [Compound 069, N-[3-(7-{[(3S,4R)-3-fluoro-1-methylpiperidin-4-yl]amino}-3-(2,2,2-trifluoroethyl)pyrazolo[1,5-a]pyridin-2-yl)prop-2-yn-1-yl]benzamide]			5.54	
COc1ccc(C(=O)NCC#Cc2nn3c(N[C@@H]4CCN(C)C[C@@H]4F)cccc3c2CC(F)(F)F)cc1 [Compound 070, N-[3-(7-{[(3S,4R)-3-fluoro-1-methylpiperidin-4-yl]amino}-3-(2,2,2-trifluoroethyl)pyrazolo[1,5-a]pyridin-2-yl)prop-2-yn-1-yl]-4-methoxybenzamide]			5.48	
COc1ccccc1C(=O)NCC#Cc1nn2c(N[C@@H]3CCN(C)C[C@@H]3F)cccc2c1CC(F)(F)F [Compound 071, N-[3-(7-{[(3S,4R)-3-fluoro-1-methylpiperidin-4-yl]amino}-3-(2,2,2-trifluoroethyl)pyrazolo[1,5-a]pyridin-2-yl)prop-2-yn-1-yl]-2-methoxybenzamide]			5.34	
CN1CC[C@@H](Nc2cccc3c(CC(F)(F)F)c(C#CCNC(=O)c4cccnc4)nn23)[C@@H](F)C1 [Compound 074, N-[3-(7-{[(3S,4R)-3-fluoro-1-methylpiperidin-4-yl]amino}-3-(2,2,2-trifluoroethyl)pyrazolo[1,5-a]pyridin-2-yl)prop-2-yn-1-yl]nicotinamide]	51		5.73	
CN1CC[C@@H](Nc2cccc3c(CC(F)(F)F)c(C#CCNC(=O)c4cn(C(C)(C)C)cn4)nn23)[C@@H](F)C1 [Compound 082, 1-tert-butyl-N-[3-(7-{[(3S,4R)-3-fluoro-1-methylpiperidin-4-yl]amino}-3-(2,2,2-trifluoroethyl)pyrazolo[1,5-a]pyridin-2-yl)prop-2-yn-1-yl]-1H-imidazole-4-carboxamide]	20		5.96	
CN1CC[C@@H](Nc2cccc3c(CC(F)(F)F)c(C#CCNC(=O)c4csc(C(C)(C)C)n4)nn23)[C@@H](F)C1 [Compound 088, 2-tert-butyl-N-[3-(7-{[(3S,4R)-3-fluoro-1-methylpiperidin-4-yl]amino}-3-(2,2,2-trifluoroethyl)pyrazolo[1,5-a]pyridin-2-yl)prop-2-yn-1-yl]-1,3-thiazole-4-carboxamide]			5.15	
CN1CC[C@@H](Nc2cccc3c(CC(F)(F)F)c(C#CCNC(=O)c4cnc(C(C)(C)C)s4)nn23)[C@@H](F)C1 [Compound 089, 2-tert-butyl-N-[3-(7-{[(3S,4R)-3-fluoro-1-methylpiperidin-4-yl]amino}-3-(2,2,2-trifluoroethyl)pyrazolo[1,5-a]pyridin-2-yl)prop-2-yn-1-yl]-1,3-thiazole-5-carboxamide]			5.09	
CN1CC[C@@H](Nc2cccc3c(CC(F)(F)F)c(C#CCNC(=O)c4coc(C(C)(C)C)n4)nn23)[C@@H](F)C1 [Compound 090, 2-tert-butyl-N-[3-(7-{[(3S,4R)-3-fluoro-1-methylpiperidin-4-yl]amino}-3-(2,2,2-trifluoroethyl)pyrazolo[1,5-a]pyridin-2-yl)prop-2-yn-1-yl]-1,3-oxazole-4-carboxamide]			5.16	
CN1CC[C@@H](Nc2cccc3c(CC(F)(F)F)c(C#CCNC(=O)C4CC4)nn23)[C@@H](F)C1 [Compound 135, N-[3-(7-{[(3S,4R)-3-fluoro-1-methylpiperidin-4-yl]amino}-3-(2,2,2-trifluoroethyl)pyrazolo[1,5-a]pyridin-2-yl)prop-2-yn-1-yl]cycloproplycarboxamide]	22			5.78
CN1CC[C@@H](Nc2cccc3c(CC(F)(F)F)c(C#CCNC(=O)c4ccc(C(C)(C)O)cc4)nn23)[C@@H](F)C1 [Compound 230, N-[3-(7-{[(3S,4R)-3-fluoro-1-methylpiperidin-4-yl]amino}-3-(2,2,2-trifluoroethyl)pyrazolo[1,5-a]pyridin-2-yl)prop-2-yn-1-yl]-4-(2-hydroxyprop-2-yl)benzamide]	29		5.98	
CN1CC[C@@H](Nc2cccc3c(CC(F)(F)F)c(C#CCNC(=O)c4cnn5c4CCC5)nn23)[C@@H](F)C1 [Compound 231, N-[3-(7-{[(3S,4R)-3-fluoro-1-methylpiperidin-4-yl]amino}-3-(2,2,2-trifluoroethyl)pyrazolo[1,5-a]pyridin-2-yl)prop-2-yn-1-yl]-5,6-dihydro-4H-pyrrolo[1,2-b]pyrazole-3-carboxamide]	19		6.14	
CN1CC[C@@H](Nc2cccc3c(CC(F)(F)F)c(C#CCNC(=O)c4cnn(C(C)(C)CO)c4)nn23)[C@@H](F)C1 [Compound 232, N-[3-(7-{[(3S,4R)-3-fluoro-1-methylpiperidin-4-yl]amino}-3-(2,2,2-trifluoroethyl)pyrazolo[1,5-a]pyridin-2-yl)prop-2-yn-1-yl]-1-(1-hydroxy-2-methylprop-2-yl)-1H-pyrazole-4-carboxamide]	8		6.38	
CN1CC[C@@H](Nc2cccc3c(CC(F)(F)F)c(C#CCNC(=O)c4ccc(C(C)(C)O)nc4)nn23)[C@@H](F)C1 [Compound 236, N-[3-(7-{[(3S,4R)-3-fluoro-1-methylpiperidin-4-yl]amino}-3-(2,2,2-trifluoroethyl)pyrazolo[1,5-a]pyridin-2-yl)prop-2-yn-1-yl]-6-(2-hydroxyprop-2-yl)pyridine-3-carboxamide]	22		5.89	
CN1CC[C@@H](Nc2cccc3c(CC(F)(F)F)c(C#CCNC(=O)c4cc5n(c4)CCC5)nn23)[C@@H](F)C1 [Compound 260, N-[3-(7-{[(3S,4R)-3-fluoro-1-methylpiperidin-4-yl]amino}-3-(2,2,2-trifluoroethyl)pyrazolo[1,5-a]pyridin-2-yl)prop-2-yn-1-yl]-2,3-dihydro-1H-pyrrolizine-6-carboxamide]	18		5.92	
CN1CC[C@@H](Nc2cccc3c(CC(F)(F)F)c(C#CCNC(=O)c4ccn(C)c4)nn23)[C@@H](F)C1 [Compound 270, N-[3-(7-{[(3S,4R)-3-fluoro-1-methylpiperidin-4-yl]amino}-3-(2,2,2-trifluoroethyl)pyrazolo[1,5-a]pyridin-2-yl)prop-2-yn-1-yl]-1-methyl-1H-pyrrole-3-carboxamide]	13		6.09	
CN1CC[C@@H](Nc2cccc3c(CC(F)(F)F)c(C#CCNC(=O)c4cc(C#N)n(C)c4)nn23)[C@@H](F)C1 [Compound 271, 5-cyano-N-[3-(7-{[(3S,4R)-3-fluoro-1-methylpiperidin-4-yl]amino}-3-(2,2,2-trifluoroethyl)pyrazolo[1,5-a]pyridin-2-yl)prop-2-yn-1-yl]-1-methyl-1H-pyrrole-3-carboxamide]	23		6.03	
Cc1cc(C(=O)NCC#Cc2nn3c(N[C@@H]4CCN(C)C[C@@H]4F)cccc3c2CC(F)(F)F)c[nH]1 [Compound 272, N-[3-(7-{[(3S,4R)-3-fluoro-1-methylpiperidin-4-yl]amino}-3-(2,2,2-trifluoroethyl)pyrazolo[1,5-a]pyridin-2-yl)prop-2-yn-1-yl]-5-methyl-1H-pyrrole-3-carboxamide]	13		5.91	
CCN1CC[C@@H](Nc2cccc3c(CC(F)(F)F)c(C#CCNC(=O)c4cnn(CC)c4N)nn23)[C@@H](F)C1 [Compound 364, 5-amino-1-ethyl-N-(3-(7-{[(3S,4R)-1-ethyl-3-fluoropiperidin-4-yl]amino}-3-(2,2,2-trifluoroethyl)pyrazolo[1,5-a]pyridin-2-yl)prop-2-yn-1-yl)-1H-pyrazole-4-carboxamide]			6.81	
